We go through 1 compound from patent EP0452101B1, “Spiro bridged and unbridged heterocyclic compounds” (ISRAEL INSTITUTE FOR BIOLOGICAL RESEARCH, priority 1990, dated 1991).

Read-outs that look alike come from different tables or passages of the source.

This experiment concerns muscarinic receptors. Kind of experiment: (-)3H-QNB binding to rat cerebral cortex homogenates with and without Cu++ treatment.

On to `CC1=NCC2(CCN(C)CC2)O1` [AF150, 2-Methyl-spiro(1,3-oxazoline-5,4')-1'-methylpiperidine], for which the “%H (% of high affinity state)” value runs as follows: (with Cu++ pretreatment (100 µM, 30 minutes)) 37%; (with Cu++ pretreatment (100 µM, 30 minutes), listed as 5) 37±2%; (without pretreatment) 14%; (without pretreatment, listed as 5) 14±1%. Further, the Ki was found to be 0.52 ± 0.003 µM (with Cu++ pretreatment (100 µM, 30 minutes), read-out: KH); 18 ± 2 µM (with Cu++ pretreatment (100 µM, 30 minutes), read-out: KL); 0.32 µM (without pretreatment, read-out: KH); 33.5 µM (without pretreatment, read-out: KL).
